# Results published in PubChem BioAssay AID248 (DTP/NCI, 2004).
# Values joined by “and” are separate entries in the source; they are usually repeats but may differ in a detail not shown here. Equal values may be shown once. Inconclusive results and toxic doses are left out.
# Tested on: L1210 leukemia ip in BDF1 mice, survival T/C
# Assay: NCI In Vivo Anticancer Drug Screen. Data for tumor model L1210 Leukemia (intraperitoneal) in B6D2F1 (BDF1) mice
# Details: endpoint: mean survival time, higher = longer survival
# In short: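 Survival endpoint. Drug-treated group vs vehicle group, expressed as T divided by C. Tumor passaged by transplantation.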
# [1] = dose: 25.0 mg/kg/injection, schedule: Q04DX002 (ip), vehicle: saline
# [2] = dose: 50.0 mg/kg/injection, schedule: Q01DX001 (ip), vehicle: saline
# [3] = dose: 50.0 mg/kg/injection, schedule: Q04DX002 (ip), vehicle: saline
# [4] = dose: 100.0 mg/kg/injection, schedule: Q01DX001 (ip), vehicle: saline
# [5] = dose: 100.0 mg/kg/injection, schedule: Q01DX009 (ip), vehicle: saline
# [6] = dose: 100.0 mg/kg/injection, schedule: Q04DX002 (ip), vehicle: saline
# [7] = dose: 100.0 mg/kg/injection, schedule: Q04DX003 (ip), vehicle: saline
# [8] = dose: 200.0 mg/kg/injection, schedule: Q04DX003 (ip), vehicle: saline
# [9] = dose: 400.0 mg/kg/injection, schedule: Q04DX003 (ip), vehicle: saline
# [10] = dose: 100.0 mg/kg/injection, schedule: Q01DX009 (ip), vehicle: gum acacia
# [11] = dose: 100.0 mg/kg/injection, schedule: Q04DX003 (ip), vehicle: gum acacia
# [12] = dose: 200.0 mg/kg/injection, schedule: Q04DX003 (ip), vehicle: gum acacia
# [13] = dose: 400.0 mg/kg/injection, schedule: Q04DX003 (ip), vehicle: gum acacia
# [14] = dose: 100.0 mg/kg/injection, schedule: Q01DX001 (ip), vehicle: carboxymethylcellulose (CMC)
# [15] = dose: 200.0 mg/kg/injection, schedule: Q01DX001 (ip), vehicle: carboxymethylcellulose (CMC)
# [16] = dose: 400.0 mg/kg/injection, schedule: Q01DX001 (ip), vehicle: carboxymethylcellulose (CMC)
# [17] = dose: 100.0 mg/kg/injection, schedule: Q01DX009 (ip), vehicle: Klucel (hydroxypropylcellulose) (HPC)
# [18] = dose: 200.0 mg/kg/injection, schedule: Q01DX009 (ip), vehicle: Klucel (hydroxypropylcellulose) (HPC)
# [19] = dose: 100.0 mg/kg/injection, schedule: Q01DX009 (ip), vehicle: saline with Tween-80
smiles,measurement,setting,value
CCN(CC)CCCC(C)Nc1ccnc2cc(Cl)ccc12 (stereo not given),T/C,"dose: 25.0 mg/kg/injection, schedule: Q01DX001 (ip), vehicle: saline",103 % of control
same,T/C,"dose: 25.0 mg/kg/injection, schedule: Q01DX009 (ip), vehicle: saline",100 % of control
same,T/C,[1],95 % of control
same,T/C,[2],104 % of control
same,T/C,"dose: 50.0 mg/kg/injection, schedule: Q01DX009 (ip), vehicle: saline",97 % of control and 98 % of control
same,T/C,[3],95 % of control
same,T/C,"dose: 50.0 mg/kg/injection, schedule: Q04DX003 (ip), vehicle: saline",105 % of control
same,T/C,[4],118 % of control and 92 % of control
same,T/C,[5],98 % of control
same,T/C,[6],95 % of control
same,T/C,[7],108 % of control
Nc1cc(=O)[nH][nH]1,T/C,[5],98 % of control
same,T/C,[7],102 % of control
same,T/C,"dose: 200.0 mg/kg/injection, schedule: Q01DX009 (ip), vehicle: saline",106 % of control
same,T/C,"dose: 200.0 mg/kg/injection, schedule: Q01DX Z (ip), vehicle: carboxymethylcellulose (CMC)",115 % of control
same,T/C,"dose: 200.0 mg/kg/injection, schedule: Q01DX Z (ip), vehicle: saline",115 % of control
same,T/C,[8],107 % of control
same,T/C,"dose: 300.0 mg/kg/injection, schedule: Q01DX Z (ip), vehicle: carboxymethylcellulose (CMC)",115 % of control
same,T/C,"dose: 300.0 mg/kg/injection, schedule: Q01DX Z (ip), vehicle: saline",123 % of control
same,T/C,"dose: 400.0 mg/kg/injection, schedule: Q01DX009 (ip), vehicle: saline",120 % of control
same,T/C,[9],105 % of control
same,T/C,"dose: 450.0 mg/kg/injection, schedule: Q01DX Z (ip), vehicle: carboxymethylcellulose (CMC)",121 % of control
same,T/C,"dose: 675.0 mg/kg/injection, schedule: Q01DX Z (ip), vehicle: saline",112 % of control
CC1C(C)N1P(I)(c1ccccc1)(c1ccccc1)c1ccccc1 (stereo not given),T/C,"dose: 2.5 mg/kg/injection, schedule: Q01DX001 (ip), vehicle: carboxymethylcellulose (CMC)",115 % of control
C=CCSCn1ncc2ccc([N+](=O)[O-])cc21,T/C,[4],94 % of control
same,T/C,"dose: 200.0 mg/kg/injection, schedule: Q01DX001 (ip), vehicle: saline",92 % of control
same,T/C,"dose: 400.0 mg/kg/injection, schedule: Q01DX001 (ip), vehicle: saline",96 % of control
CC(C)N(C(=O)Nc1cccc2ccccc12)c1ccccc1,T/C,[10],97 % of control
same,T/C,[11],110 % of control
same,T/C,"dose: 200.0 mg/kg/injection, schedule: Q01DX009 (ip), vehicle: gum acacia",96 % of control
same,T/C,[12],102 % of control
same,T/C,"dose: 400.0 mg/kg/injection, schedule: Q01DX009 (ip), vehicle: gum acacia",99 % of control
same,T/C,[13],104 % of control
CC(C)CC(=O)C=C(C(F)(F)F)C(F)(F)F,T/C,"dose: 100.0 mg/kg/injection, schedule: Q01DX001 (ip), vehicle: saline with Tween-80",91 % of control
same,T/C,"dose: 200.0 mg/kg/injection, schedule: Q01DX001 (ip), vehicle: saline with Tween-80",96 % of control
same,T/C,"dose: 400.0 mg/kg/injection, schedule: Q01DX001 (ip), vehicle: saline with Tween-80",93 % of control
O=c1[nH]c(-c2ccccc2)nc(CN2CCCCC2)c1O,T/C,"dose: 50.0 mg/kg/injection, schedule: Q01DX001 (ip), vehicle: carboxymethylcellulose (CMC)",101 % of control
same,T/C,[14],101 % of control
same,T/C,[15],98 % of control
same,T/C,[16],95 % of control
CCOc1ccc(NC(=O)c2c(Br)c(Br)c(Br)c(Br)c2C(=O)O)cc1,T/C,[17],102 % of control
same,T/C,[18],87 % of control
Cc1ccc(C(/C=C/c2ccccc2)=N\N=C(N)N)cc1,T/C,"dose: 15.0 mg/kg/injection, schedule: Q01DX Z (ip), vehicle: methylcellulose (MC)",87 % of control
same,T/C,"dose: 30.0 mg/kg/injection, schedule: Q01DX Z (ip), vehicle: methylcellulose (MC)",87 % of control
same,T/C,"dose: 30.0 mg/kg/injection, schedule: Q01DX Z (oral), vehicle: methylcellulose (MC)",93 % of control
same,T/C,"dose: 60.0 mg/kg/injection, schedule: Q01DX Z (ip), vehicle: methylcellulose (MC)",97 % of control
same,T/C,"dose: 60.0 mg/kg/injection, schedule: Q01DX Z (oral), vehicle: methylcellulose (MC)",87 % of control
same,T/C,"dose: 120.0 mg/kg/injection, schedule: Q01DX Z (oral), vehicle: methylcellulose (MC)",95 % of control
same,T/C,"dose: 240.0 mg/kg/injection, schedule: Q01DX Z (oral), vehicle: methylcellulose (MC)",95 % of control
same,T/C,"dose: 480.0 mg/kg/injection, schedule: Q01DX Z (oral), vehicle: methylcellulose (MC)",100 % of control
C=C(C)CN1C(=O)c2ccccc2C1=O,T/C,"dose: 25.0 mg/kg/injection, schedule: Q01DX009 (ip), vehicle: gum acacia",94 % of control
same,T/C,"dose: 50.0 mg/kg/injection, schedule: Q01DX009 (ip), vehicle: gum acacia",96 % of control
same,T/C,[10],88 % of control
same,T/C,[11],108 % of control
same,T/C,[12],97 % of control
same,T/C,[13],93 % of control
c1ccc([P+](c2ccccc2)(c2ccccc2)C2CN=NC2)cc1,T/C,"dose: 10.0 mg/kg/injection, schedule: Q01DX001 (ip), vehicle: saline",103 % of control
same,T/C,"dose: 20.0 mg/kg/injection, schedule: Q01DX001 (ip), vehicle: saline",108 % of control
same,T/C,"dose: 40.0 mg/kg/injection, schedule: Q01DX001 (ip), vehicle: saline",112 % of control
C[S+]1Cc2ccccc2C1,T/C,"dose: 100.0 mg/kg/injection, schedule: Q04DX003 (ip), vehicle: saline with Tween-80",106 % of control
same,T/C,"dose: 200.0 mg/kg/injection, schedule: Q04DX003 (ip), vehicle: saline with Tween-80",104 % of control
CS(=O)(=O)OCCNC[C@@H](O)[C@@H](O)CNCCOS(C)(=O)=O,T/C,"dose: 0.8 mg/kg/injection, schedule: Q01DX001 (ip), vehicle: saline",101 % of control
same,T/C,"dose: 1.4 mg/kg/injection, schedule: Q01DX001 (ip), vehicle: saline",112 % of control and 121 % of control
same,T/C,"dose: 2.3 mg/kg/injection, schedule: Q01DX001 (ip), vehicle: saline",112 % of control and 123 % of control
same,T/C,"dose: 6.5 mg/kg/injection, schedule: Q01DX001 (ip), vehicle: saline",122 % of control
same,T/C,"dose: 18.0 mg/kg/injection, schedule: Q01DX001 (ip), vehicle: saline",161 % of control
same,T/C,"dose: 30.0 mg/kg/injection, schedule: Q01DX001 (ip), vehicle: saline",151 % of control and 186 % of control
same,T/C,[2],207 % of control
same,T/C,[4],108 % of control
CC(=O)OC1C(C2CSC(=O)O2)OC2OC(C)(C)OC21 (stereo not given),T/C,[1],89 % of control
same,T/C,[3],103 % of control
same,T/C,[6],92 % of control
C[N+](C)(C)CCC1CCCCC1,T/C,"dose: 75.0 mg/kg/injection, schedule: Q01DX001 (ip), vehicle: saline",102 % of control
Cc1ccc(NC(=O)CCC(=O)O)cc1Cl,T/C,[17],102 % of control
same,T/C,[18],92 % of control
same,T/C,"dose: 400.0 mg/kg/injection, schedule: Q01DX009 (ip), vehicle: Klucel (hydroxypropylcellulose) (HPC)",89 % of control
NC(=S)c1cccc(S(=O)(=O)Nc2ccccc2)c1,T/C,"dose: 100.0 mg/kg/injection, schedule: Q01DX001 (ip), vehicle: Klucel (hydroxypropylcellulose) (HPC)",103 % of control
same,T/C,"dose: 200.0 mg/kg/injection, schedule: Q01DX001 (ip), vehicle: Klucel (hydroxypropylcellulose) (HPC)",105 % of control
same,T/C,"dose: 400.0 mg/kg/injection, schedule: Q01DX001 (ip), vehicle: Klucel (hydroxypropylcellulose) (HPC)",101 % of control
NC(=O)CC1(O)CCCCC1,T/C,[7],114 % of control
same,T/C,[8],97 % of control
same,T/C,[9],97 % of control
CC(=O)NCCCCCC(=O)Nc1ccc(Cl)c(Cl)c1,T/C,[14],94 % of control
same,T/C,[15],92 % of control
same,T/C,[16],92 % of control
N#CC(CC(=O)c1ccccc1)c1ccccc1 (stereo not given),T/C,[19],97 % of control
same,T/C,"dose: 200.0 mg/kg/injection, schedule: Q01DX009 (ip), vehicle: saline with Tween-80",100 % of control
same,T/C,"dose: 400.0 mg/kg/injection, schedule: Q01DX009 (ip), vehicle: saline with Tween-80",107 % of control
CCN(C(=O)Nc1ccccc1F)c1cc(OC)ccc1C,T/C,"dose: 50.0 mg/kg/injection, schedule: Q01DX009 (ip), vehicle: saline with Tween-80",91 % of control
same,T/C,[19],86 % of control
